Data on 14 compounds can be found in ChEMBL document CHEMBL3352178, “Antidepressant- and anxiolytic-like activity of 7-phenylpiperazinylalkyl-1,3-dimethyl-purine-2,6-dione derivatives with diversified 5-HT₁A receptor functional profile” (Bioorg Med Chem, 2015).

In general, Ki refers to the equilibrium dissociation constant of an inhibitor or competing ligand from its target.

Calls of active or inactive are those of the source. No cut-off for these calls is given here.

Data set [1] has as its target T1, 5-hydroxytryptamine receptor 1A (Rattus norvegicus, UniProt P19327).
T1 sequence (P19327 whole entry): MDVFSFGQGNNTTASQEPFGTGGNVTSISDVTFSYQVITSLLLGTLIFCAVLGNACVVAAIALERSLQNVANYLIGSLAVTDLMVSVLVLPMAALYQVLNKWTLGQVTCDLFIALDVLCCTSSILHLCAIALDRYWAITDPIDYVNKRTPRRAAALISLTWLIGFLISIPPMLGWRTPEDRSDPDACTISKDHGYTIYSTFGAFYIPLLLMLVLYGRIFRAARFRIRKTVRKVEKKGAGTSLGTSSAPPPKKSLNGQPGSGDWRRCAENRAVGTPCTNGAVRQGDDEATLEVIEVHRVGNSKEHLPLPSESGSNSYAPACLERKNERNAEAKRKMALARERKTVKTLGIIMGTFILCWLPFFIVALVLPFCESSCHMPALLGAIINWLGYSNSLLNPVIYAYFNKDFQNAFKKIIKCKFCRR
Nature of the data set: Displacement of [3H]-8-OH-DPAT from 5-HT1AR in rat hippocampus. Format: tissue-based. On the technique in general: Loss of bound radioactivity is the signal in a displacement assay; it reports binding, not function.

For data set [2], the target named is 5-hydroxytryptamine receptor 2A (Rattus norvegicus, UniProt P14842). Nature of the data set: Displacement of [3H]-ketanserin from 5-HT2AR in rat cortex.
Chain of 5-hydroxytryptamine receptor 2A (P14842 whole entry): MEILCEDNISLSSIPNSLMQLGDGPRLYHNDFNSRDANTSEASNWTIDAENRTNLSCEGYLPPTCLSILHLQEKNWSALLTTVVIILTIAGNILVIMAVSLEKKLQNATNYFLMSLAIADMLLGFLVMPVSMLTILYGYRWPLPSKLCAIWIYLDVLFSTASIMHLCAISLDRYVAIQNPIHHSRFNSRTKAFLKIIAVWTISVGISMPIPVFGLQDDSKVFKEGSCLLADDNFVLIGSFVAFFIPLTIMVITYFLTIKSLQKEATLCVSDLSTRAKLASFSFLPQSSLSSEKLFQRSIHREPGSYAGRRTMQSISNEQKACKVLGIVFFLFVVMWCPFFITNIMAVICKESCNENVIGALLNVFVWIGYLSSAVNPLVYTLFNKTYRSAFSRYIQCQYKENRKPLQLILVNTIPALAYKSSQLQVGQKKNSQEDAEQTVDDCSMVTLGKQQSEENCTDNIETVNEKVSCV
Data set [3] concerns the target 5-hydroxytryptamine receptor 6 (Homo sapiens, UniProt P50406). Nature of the data set: Displacement of [3H]LSD from human cloned 5-HT6R expressed in HEK293 cells. It is filed as cell-based.
In data set [4] the target is 5-hydroxytryptamine receptor 7 (Homo sapiens, UniProt P34969). Put plainly: Displacement of [3H]]-5-CT from human cloned 5-HT7R expressed in HEK293 cells. It is filed as cell-based.
Chain of 5-hydroxytryptamine receptor 7 (P34969 whole entry): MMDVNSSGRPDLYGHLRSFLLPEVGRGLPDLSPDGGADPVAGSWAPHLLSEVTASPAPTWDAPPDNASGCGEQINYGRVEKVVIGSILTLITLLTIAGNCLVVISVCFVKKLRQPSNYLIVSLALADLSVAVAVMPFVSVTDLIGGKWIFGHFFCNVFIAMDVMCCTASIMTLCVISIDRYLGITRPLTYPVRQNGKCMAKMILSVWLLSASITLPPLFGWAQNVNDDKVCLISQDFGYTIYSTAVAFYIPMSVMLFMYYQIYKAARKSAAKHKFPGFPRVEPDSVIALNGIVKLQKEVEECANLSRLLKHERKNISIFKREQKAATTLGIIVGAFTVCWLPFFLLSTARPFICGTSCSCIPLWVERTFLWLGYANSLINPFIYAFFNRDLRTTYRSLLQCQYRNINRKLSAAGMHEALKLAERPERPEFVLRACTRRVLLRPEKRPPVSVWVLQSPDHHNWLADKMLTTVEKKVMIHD
Another data set has as its target D(2) dopamine receptor (Rattus norvegicus, UniProt P61169). Nature of the data set: Displacement of [3H]-spiperone from dopamine D2 receptor in rat striatum.
In data set [5] the test system is Mus musculus. Put plainly: Anxiolytic-like activity in mouse assessed as increase in number of punished crossings at 1.25 to 5 mg/kg, ip dosed 60 mins before test by four plate test. It is filed as functional, organism-based.
The subject of data set [6] is Mus musculus. Put plainly: Antidepressant-like activity in mouse assessed as reduction in immobility time at 10 to 20 mg/kg, ip dosed 60 mins before test by forced swim test. Format: functional, organism-based.
Data set [7] deals with Mus musculus. Put plainly: Effect on spontaneous locomotor activity in ip dosed mouse during 2 to 6 mins. It is filed as ADME, organism-based. The following applies: in vivo.

Chain of D(2) dopamine receptor (P61169 whole entry): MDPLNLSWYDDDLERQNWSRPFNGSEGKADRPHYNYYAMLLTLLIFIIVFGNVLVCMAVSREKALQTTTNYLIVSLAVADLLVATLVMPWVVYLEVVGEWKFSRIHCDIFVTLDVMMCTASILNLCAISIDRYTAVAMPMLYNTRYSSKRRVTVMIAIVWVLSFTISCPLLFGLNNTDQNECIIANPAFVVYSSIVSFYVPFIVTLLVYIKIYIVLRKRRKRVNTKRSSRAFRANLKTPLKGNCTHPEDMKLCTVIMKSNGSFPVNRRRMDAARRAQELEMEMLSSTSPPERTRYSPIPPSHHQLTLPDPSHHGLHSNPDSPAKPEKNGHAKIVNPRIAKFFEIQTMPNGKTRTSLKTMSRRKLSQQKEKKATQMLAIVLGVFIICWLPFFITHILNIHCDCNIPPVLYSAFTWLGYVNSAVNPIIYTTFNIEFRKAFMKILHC
Chain of 5-hydroxytryptamine receptor 6 (P50406 whole entry): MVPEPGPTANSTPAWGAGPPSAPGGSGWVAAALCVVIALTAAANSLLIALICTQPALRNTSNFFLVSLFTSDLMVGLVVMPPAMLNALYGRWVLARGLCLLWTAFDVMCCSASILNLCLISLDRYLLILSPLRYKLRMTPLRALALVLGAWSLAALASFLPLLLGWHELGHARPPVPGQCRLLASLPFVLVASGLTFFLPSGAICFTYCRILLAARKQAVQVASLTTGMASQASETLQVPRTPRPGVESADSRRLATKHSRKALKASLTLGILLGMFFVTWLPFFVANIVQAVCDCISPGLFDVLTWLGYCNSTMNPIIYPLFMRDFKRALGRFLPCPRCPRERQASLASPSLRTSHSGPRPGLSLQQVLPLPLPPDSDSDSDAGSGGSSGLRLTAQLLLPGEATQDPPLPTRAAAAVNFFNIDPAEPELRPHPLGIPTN

In the case of `Cn1c(=O)c2c(nc(N3CCOCC3)n2CCCCN2CCN(c3cccc(Cl)c3)CC2)n(C)c1=O`, the Ki in data set [1] worked out at 22 nM; in data set [2] it was 21 nM; in data set [3] it was 207 nM; in data set [4] it was 112 nM.
`Cn1c(=O)c2c(ncn2CCCCN2CCc3ccccc3C2)n(C)c1=O`: the Ki in data set [1] worked out at 239 nM; in data set [2] it was 22000 nM; in data set [3], 11700 nM; in data set [4], 629 nM; on D(2) dopamine receptor, 7820 nM.
The like results for `COc1ccccc1N1CCN(CCCCn2cnc3c2c(=O)n(C)c(=O)n3C)CC1` were, in that order, 1.2 nM, 1050 nM, 1970 nM, 434 nM and 65 nM.
Consider `Cn1c(=O)c2c(ncn2CCCCN2CCN(c3cccc(Cl)c3Cl)CC2)n(C)c1=O`, for which the Ki was determined as 55 nM in data set [1]; 162 nM in data set [2]; 68 nM in data set [3]; 73 nM in data set [4]; 15 nM at D(2) dopamine receptor.
For `CN1C(=O)CN=C(c2ccccc2)c2cc(Cl)ccc21`, in the data set on Mus musculus [5], the outcome was Active.
On to `Cn1c(=O)c2c(ncn2CCCN2CCc3ccccc3C2)n(C)c1=O`, for which the Ki stood at 433 nM in data set [1]; 10500 nM in data set [2]; 12300 nM in data set [3]; 3620 nM in data set [4]; 2710 nM at D(2) dopamine receptor.
On to `CCOc1nc2c(c(=O)n(C)c(=O)n2C)n1CCCCN1CCN(c2ccccc2OC)CC1`, for which the affinity in data set [4] corresponds to a Ki of 54 nM.
For `Cn1c(=O)c2c(ncn2CCCCCN2CCc3ccccc3C2)n(C)c1=O`, the Ki in data set [1] worked out at 171 nM; in data set [2], 16400 nM; in data set [3], 9140 nM; in data set [4], 1010 nM; at D(2) dopamine receptor, 1220 nM.
For `Cn1c(=O)c2c(ncn2CCCN2CCN(c3cccc(Cl)c3)CC2)n(C)c1=O`, the Ki came out at 182 nM in data set [1]; 53 nM in data set [2]; 20300 nM in data set [3]; 2800 nM in data set [4]; 3190 nM at D(2) dopamine receptor.
On the same counts, the results for `Cn1c(=O)c2c(ncn2CCCCN2CCN(c3ccc(Cl)c(Cl)c3)CC2)n(C)c1=O` are 105 nM, 460 nM, 1900 nM, 179 nM and 73 nM.
The like results for `COc1ccccc1N1CCN(CCCn2cnc3c2c(=O)n(C)c(=O)n3C)CC1` were, in that order, 119 nM, 927 nM, 12100 nM, 2210 nM and 944 nM.
For the compound `Cn1c(=O)c2c(ncn2CCCN2CCN(c3ccccc3)CC2)n(C)c1=O`, the Ki came out at 571 nM in data set [1]; 92 nM in data set [2]; 20100 nM in data set [3]; 1430 nM in data set [4]; 1090 nM at D(2) dopamine receptor.
On the same counts, the results for `Cn1c(=O)c2c(ncn2CCCCN2CCN(c3ccccc3)CC2)n(C)c1=O` are 23 nM, 507 nM, 14200 nM, 1150 nM and 1010 nM.
On to `CN(C)CCCN1c2ccccc2CCc2ccccc21` [IMIPRAMINE], for which the outcome in the data set on Mus musculus [6] was Active. The Activity entry in the data set with Mus musculus [7] is “Non-toxic”.
